These results are taken from EP4796551A1, “ZWITTERIONIC PHOSPHOLIPID COMPOUND AND LIPID NANOPARTICLE CONTAINING THE SAME” (National University Corporation Hokkaido University, priority 2023, dated 2025).

Type in all cases: physicochemical
Series [1] can be described thus: Particle size, PDI and ζ-potential of mRNA-LNP (Zetasizer Nano ZS). The following applies: mRNA-LNP formulation phospholipid:CL4F6:Chol:PEG-DMG 10:50:40:1.0, Fluc mRNA. How it is done:
(§1) Ethanol solutions containing each phospholipid, CL4F6, Chol, and PEG2000-dimirystoylglycerol (PEG-DMG) at the molar ratio of 10:50:40:1.0 were prepared at the total lipid concentration of 16 mM. For fluorescent labeling of LNPs, 0.5 mol% of DiI or DiR was added to the above solutions. The firefly luciferase (Fluc)-encoding mRNA (TriLink) was dissolved in a 25 mM acetate buffer (pH 4.0). LNPs were prepared by mixing the lipids in ethanol and RNA in an aqueous solution using an iLiNP device at a total flow rate (TFR) of 0.5 mL/min and a flow rate ratio (FRR) (RNA flow rate/lipid flow rate) of 3. The nitrogen to phosphate (N/P) ratio was adjusted to 6. Syringe pumps (Harvard apparatus) were used to control the flow rate of the solutions. The resulting LNP solutions were then dialyzed for 2 hours or more at 4 °C against phosphate buffered saline without Ca^2+ and Mg^2+ (PBS(-)) using Spectra/Por 4 dialysis membranes (molecular weight cut-off 12,000-14,000 Da, Spectrum Laboratories). The LNP solutions were concentrated by ultrafiltration using an Amicon Ultra-15 unit (MWCO 100 kDa, Millipore) as needed.
(§2) The ζ-average particle size, polydispersity index (PDI), and ζ-potential of the LNPs were measured by means of a Zetasizer Nano ZS ZEN3600 instrument (Malvern Instruments). The encapsulation efficiency and total concentration of mRNA were measured by a Ribogreen assay according to a conventional method.

The nature of series [2]: Ribogreen assay, mRNA encapsulation efficiency of LNP. The following applies: mRNA-LNP formulation phospholipid:CL4F6:Chol:PEG-DMG 10:50:40:1.0, Fluc mRNA. Here is the method:
as §1, §2

The nature of series [3]: Lipid polymorphism by 31P NMR method (mixtures with POPC). Conditions: lipid:POPC molar ratio 1:1, 20 mM HEPES pH 7.4, room temperature. How it is done:
In order to examine the interaction between DOPE-Cx and PC and characteristics thereof, lipid polymorphism of the lipid suspension was evaluated by a ^31P NMR method. Since the rotational motion of lipid molecules in a lamellar phase which is a planar structure and a (inverted) hexagonal phase which is a tubular structure receives different restrictions respectively, a specific ^31P NMR spectrum is provided by chemical shift anisotropy. Specifically, the lamellar phase produces a broad […] peak, and the (inverted) hexagonal phase produces a broad […] peak.
First, DOPE or DOPE-C8 and 1-palmitoyl-2-oleoyl-sn-glycero-3-phosphocholine (POPC) were mixed at a predetermined ratio in 400 µL of chloroform (total lipid 16 µmol), and the solvent was removed by a rotary evaporator to form a lipid membrane. The lipid membrane was hydrated with 500 µL of 20 mM HEPES buffer (pH 7.4, 130 mM NaCl) at 60°C. Then, the lipid dispersion was transferred to an NMR tube, and a ^31P NMR spectrum at room temperature was measured by a conventional method using an ECX 400P spectrometer (JEOL Ltd.).

Consider `CCCCCCCC/C=C\CCCCCCCC(=O)OC[C@H](COP(=O)(O)OCCNCCC(=O)OCCCC)OC(=O)CCCCCCC/C=C\CCCCCCCC` [DOPE-C4, (R)-2,3-bis(oleoyloxy)propyl (2-((3-butoxy-3-oxopropyl)ammonio)ethyl) phosphate], for which, in series [1] (Table 1), the “Number average particle size (nm)” value was 58 nm, the PDI is 0.17 and the “ζ-potential (mV)” value is reported as -5.0 mV. In series [1] (Table 1, N/P 6), the “ζ-average particle size (nm)” value worked out at 87 nm. In addition, the “mRNA encapsulation rate %” value in series [2] (Table 1) worked out at 91.2%.

Regarding `CCCCCCCC/C=C\CCCCCCCC(=O)OC[C@H](COP(=O)(O)OCCNCCC(=O)OCCC(C)CCC=C(C)C)OC(=O)CCCCCCC/C=C\CCCCCCCC` (stereo partly drawn) [DOPE-Cit, (R)-2,3-bis(oleoyloxy)propyl (2-((3-((3,7-dimethyloct-6-en-1-yl)oxy)-3-oxopropyl)ammonio)ethyl) phosphate], in series [1] (Table 2), the “Number average particle size (nm)” value stood at 65 nm, the PDI is given as 0.07, the “ζ-average particle size (nm)” value was determined as 85 nm and the “ζ-potential (mV)” value is listed as -6.1 mV. The “mRNA encapsulation rate %” value in series [2] (Table 2) is given as 95.9%.

Turning to `CCCCCCCC/C=C\CCCCCCCC(=O)OC[C@H](COP(=O)(O)OCCNCCC(=O)OCCCCCCCCCCCC)OC(=O)CCCCCCC/C=C\CCCCCCCC` [DOPE-C12, (R)-2,3-bis(oleoyloxy)propyl (2-((3-(dodecyloxy)-3-oxopropyl)ammonio)ethyl) phosphate], in series [1] (Table 1), the “Number average particle size (nm)” value turned out to be 59 nm, the PDI came to 0.25 and the “ζ-potential (mV)” value was -6.3 mV. The “ζ-average particle size (nm)” value in series [1] (Table 1, N/P 6) came to 100 nm. Moreover, the “mRNA encapsulation rate %” value in series [2] (Table 1) is 94.2%. The “lipid phase by 31P NMR spectrum” value in series [3] is listed as “the ratio derived from the inverted hexagonal phase increased”.

As to `CCCCCCCCCCCCCCCCCC(=O)OC[C@H](COP(=O)([O-])OCC[N+](C)(C)C)OC(=O)CCCCCCCCCCCCCCCCC` [DSPC, 1,2-Distearoyl-sn-glycero-3-phosphocholine, reference compound], in series [1] (Table 1), the “Number average particle size (nm)” value worked out at 56 nm, the PDI was 0.08 and the “ζ-potential (mV)” value is recorded as -3.6 mV. The “ζ-average particle size (nm)” value in series [1] (Table 1, N/P 6) amounted to 75 nm. Moreover, the “mRNA encapsulation rate %” value in series [2] (Table 1) came to 95.7%.

Turning to `CCCCCCCC/C=C\CCCCCCCC(=O)OC[C@H](COP(=O)(O)OCCNCCC(=O)OCC(CCC)CCCCC)OC(=O)CCCCCCC/C=C\CCCCCCCC` (stereo partly drawn) [DOPE-C7_β3, (R)-2,3-bis(oleoyloxy)propyl (2-((3-oxo-3-((2-propylheptyl)oxy)propyl)ammonio)ethyl) phosphate], in series [1] (Table 2), the “Number average particle size (nm)” value was found to be 61 nm, the PDI turned out to be 0.08, the “ζ-average particle size (nm)” value is 79 nm and the “ζ-potential (mV)” value is -9.6 mV. For the same compound, the “mRNA encapsulation rate %” value in series [2] (Table 2) turned out to be 96.0%. In series [3], the “lipid phase by 31P NMR spectrum” value is recorded as “the ratio derived from the inverted hexagonal phase increased”.

As for `CCCCCCCC/C=C\CCCCCCCC(=O)OC[C@H](COP(=O)(O)OCCNCCC(=O)OCC(CCCC)CCCCCC)OC(=O)CCCCCCC/C=C\CCCCCCCC` (stereo partly drawn) [DOPE-C8_β4, (R)-2,3-bis(oleoyloxy)propyl (2-((3-((2-butyloctyl)oxy)-3-oxopropyl)ammonio)ethyl) phosphate], in series [1] (Table 2), the “Number average particle size (nm)” value is 71 nm, the PDI worked out at 0.21, the “ζ-average particle size (nm)” value worked out at 112 nm and the “ζ-potential (mV)” value is -5.8 mV. Further, the “mRNA encapsulation rate %” value in series [2] (Table 2) worked out at 96.3%. Also, the “lipid phase by 31P NMR spectrum” value in series [3] is on record as “the ratio derived from the inverted hexagonal phase increased”.

On to `CCCCCCCC/C=C\CCCCCCCCOC(=O)CCNCCOP(=O)(O)OC[C@@H](COC(=O)CCCCCCC/C=C\CCCCCCCC)OC(=O)CCCCCCC/C=C\CCCCCCCC` [DOPE-C18:1, (R)-2,3-bis(oleoyloxy)propyl (2-((3-(((Z)-octadeca-9-ene-1-yl)oxy)-3-oxopropyl)ammonio)ethyl) phosphate], for which, in series [1] (Table 1), the “Number average particle size (nm)” value worked out at 56 nm, the PDI amounted to 0.18 and the “ζ-potential (mV)” value was -2.9 mV. Further, the “ζ-average particle size (nm)” value in series [1] (Table 1, N/P 6) is reported as 81 nm. For the same compound, the “mRNA encapsulation rate %” value in series [2] (Table 1) was determined as 93.9%. The “lipid phase by 31P NMR spectrum” value in series [3] is “the ratio derived from the inverted hexagonal phase increased”.

For the compound `CCCCCCCC/C=C\CCCCCCCC(=O)OC[C@H](COP(=O)(O)OCCNCCC(=O)OCCCCCC)OC(=O)CCCCCCC/C=C\CCCCCCCC` [DOPE-C6, (R)-2,3-bis(oleoyloxy)propyl (2-((3-(hexyloxy)-3-oxopropyl)ammonio)ethyl) phosphate], in series [1] (Table 1), the “Number average particle size (nm)” value came to 59 nm, the PDI is 0.15 and the “ζ-potential (mV)” value is on record as -1.4 mV. In addition, the “ζ-average particle size (nm)” value in series [1] (Table 1, N/P 6) stood at 86 nm. Further, the “mRNA encapsulation rate %” value in series [2] (Table 1) was 91.5%.

For the compound `CCCCCCCC/C=C\CCCCCCCC(=O)OC[C@H](COP(=O)(O)OCCNCCC(=O)OC(CC)CC)OC(=O)CCCCCCC/C=C\CCCCCCCC` [DOPE-C3_α2, (R)-2,3-bis(oleoyloxy)propyl (2-((3-oxo-3-(pentan-3-yloxy)propyl)ammonio)ethyl) phosphate], in series [1] (Table 3), the “Number average particle size (nm)” value is 54 nm, the PDI was 0.20, the “ζ-average particle size (nm)” value was 91 nm and the “ζ-potential (mV)” value was -10.5 mV. Moreover, the “mRNA encapsulation rate %” value in series [2] (Table 3) turned out to be 97.2%.

Regarding `CCCCCCCC/C=C\CCCCCCCC(=O)OC[C@H](COP(=O)(O)OCCNCCC(=O)OC(CCC)CCC)OC(=O)CCCCCCC/C=C\CCCCCCCC` [DOPE-C4_α3, (R)-2,3-bis(oleoyloxy)propyl (2-((3-(heptan-4-yloxy)-3-oxopropyl)ammonio)ethyl) phosphate], in series [1] (Table 3), the “Number average particle size (nm)” value is reported as 52 nm, the PDI was 0.21, the “ζ-average particle size (nm)” value is 91 nm and the “ζ-potential (mV)” value is -12.0 mV. Besides, in series [2] (Table 3), the “mRNA encapsulation rate %” value was 97.1%.

As for `CCCCCCCC/C=C\CCCCCCCC(=O)OC[C@H](COP(=O)(O)OCCNCCC(=O)OCC(C)CCC)OC(=O)CCCCCCC/C=C\CCCCCCCC` (stereo partly drawn) [DOPE-C5_β1, (R)-2,3-bis(oleoyloxy)propyl (2-((3-((2-methylpentyl)oxy)-3-oxopropyl)ammonio)ethyl) phosphate], in series [1] (Table 2), the “Number average particle size (nm)” value came to 60 nm, the PDI stood at 0.21, the “ζ-average particle size (nm)” value was 94 nm and the “ζ-potential (mV)” value is listed as -6.4 mV. Also, the “mRNA encapsulation rate %” value in series [2] (Table 2) was 95.9%.

For the compound `CCCCCCCC/C=C\CCCCCCCC(=O)OC[C@H](COP(=O)(O)OCCNCCC(=O)OCCCCCCCCCC)OC(=O)CCCCCCC/C=C\CCCCCCCC` [DOPE-C10, (R)-2,3-bis(oleoyloxy)propyl (2-((3-(decyloxy)-3-oxopropyl)ammonio)ethyl) phosphate], in series [1] (Table 1), the “Number average particle size (nm)” value was 48 nm, the PDI was 0.18 and the “ζ-potential (mV)” value is given as -7.0 mV. The “ζ-average particle size (nm)” value in series [1] (Table 1, N/P 6) came to 82 nm. For the same compound, the “mRNA encapsulation rate %” value in series [2] (Table 1) came out at 93.1%. Also, in series [3], the “lipid phase by 31P NMR spectrum” value is reported as “the ratio derived from the inverted hexagonal phase increased”.
